Values joined by “and” are separate entries in the source; they are usually repeats but may differ in a detail not shown here. Equal entries are not always repeated. “Also recorded” adds a separate entry of the source. Where two headings read alike, the source gives them in different places.
Experiments:
HIV-1 = assay: Inhibition of HIV-1-induced cytopathic effect (CPE) in MT-4 cells; type: cell-based, HIV-1 (LAV-1) in human MT-4 cells; details: for IC100: Human immunodeficiency virus 1, MT4, 120 h; for IC100 / r = CC0/IC100 / Anti-HIV-1 IC100 (complete prevention of HIV-1-induced CPE) / CPE inhibitory effect (in words): MT-4 cells; for r = CC0/IC100: 7200 min; for CPE inhibitory effect (in words): HIV-1; for anti-HIV-1 activity: at concentrations up to 500 μg/mL
Procedure: (§1) In the experiments, MT-4 cells were used. The cells were incubated at 37° C. under 5% CO2 in RPMI-1640 medium (FCS, Flow laboratories, North Ryde, Australia) supplemented with 100 μg/mL of streptomycin (Meiji Seika, Tokyo, Japan), and 100 U/mL of penicillin G (Banyu Pharmaceutical, Tokyo, Japan).
HIV-1 was obtained from culture supernatant of MOLT-4 cells that had been persistently infected with LAV-1.
j) Assay of cytopathic effect(CPE) of HIV-1 in MT-4 cells
(§2) The inhibitory effect of test compounds on HIV-1-induced cytopathogenicity was measured by the method of Harada, Koyanagi & Yamamoto (1985). MT-4 cells were infected for 1 hour with HIV-1 (at TCID50 of 0.001/well) and non-adsorbed virus was removed by washing. Then, the cells were resuspended in RPMI-1640 medium at a concentration of 1.5×10^5 cells/mL. A 200 μL/well of the cell suspension was cultured for 5 days in days in a 96-well culture plate containing various concentrations (12 doses, maximum 1,000 μg/mL and minimum […]) of the test compounds. Control assays were performed in the absence of test compounds with HIV-1-infected and uninfected cultures. On day 5, the IC100 of the test compound required for completely preventing HIV-1-induced CPE(IC) was determined through an optical microscope and the cell growth was examined to give the CC0 that reduces the viability of MT-4 cells.
A variety of phorbol esters and related compounds were tested for their ability to inhibit the replication and infectivity of HIV-1 in MT-4 cells, a human CD4-positive cell line continually infected with HTLV-1, and the results are presented in Table 3.

[1] = Cell growth / viability of MT-4 cells (cytotoxicity); type: cell-based; details: human, day 5, read-out: CC0 (concentration that reduces viability of MT-4 cells; minimum cytotoxic concentration)
Procedure: as §1, §2

protein kinase C (PKC) = type: biochemical, mouse; details: for % Activity of PKC: relative to TPA positive control; for activation of PKC (in words): concentration not given; for PKC activation, positive control: TPA, lipid and calcium chloride present
Procedure: After addition of 0.55 nM [γ-^32 P] ATP (50×10^3 cpm/nmol), the reaction mixture was mixed and allowed to be kept at 37° C. for 30 minutes. Then the reactions were terminated by the addition of 10 μl of ice-cold stop reagent. Aliquots of 35 μL were transferred to the center of peptide binding discs. After 10 minutes, the discs were washed two times with 75 mM orthophosphoric acid. The activity of ^32 P-labeled samples was counted in 10/mL of a scintillation fluid for 1 minute. […] Blank (in the absence of PKC) and control (in the absence of TPA or tested samples) were also carried out. One unit of PKC was defined as that amount of enzyme, which incorporated 1 nmol of phosphate from ATP into its substrate, peptide, per minute under the assay conditions, described above.

[2] = 5 days, NE: Not effective, read-out: Anti-HIV-1 IC100 (complete prevention of HIV-1-induced CPE)
[3] = 10 ng/mL (standard concentration)
[4] = read-out: IC100 (complete inhibition of CPE)

Compound | IC100 (HIV-1; [2]) [µg/mL] | r = CC0/IC100 (HIV-1) | MCC at 120 h [1] [µg/mL] | PKC activation (in words) (protein kinase C (PKC); [3]) | % Activity of PKC (protein kinase C (PKC); 10 ng/mL) | Anti-HIV-1 IC100 (complete prevention of HIV-1-induced CPE) (HIV-1; 5 days, NE: Not effective) [µg/mL] | % Activity of PKC (protein kinase C (PKC); 2.7 μg/mL) | CPE inhibitory effect (in words) (HIV-1) | activation of PKC (in words) (protein kinase C (PKC)) | PKC activation (in words) (protein kinase C (PKC); 10 ng to 2.7 μg/mL) | IC100 (HIV-1; [4]) [µg/mL] | PKC activation (in words) (protein kinase C (PKC); 100 ng/mL) | PKC activation (in words) (protein kinase C (PKC); 10 to 100 ng/mL) | PKC activation, positive control (protein kinase C (PKC)) [%] | PKC activation, positive control (protein kinase C (PKC); represents 100%) [nmol/mg/min] | anti-HIV-1 activity (HIV-1) | PKC activation (in words) (protein kinase C (PKC); high concentrations)
CCCCC/C=C\C/C=C\CCCCCCCC(=O)OCC1=C[C@H]2[C@@H]3C(C)(C)[C@]3(OC(C)=O)[C@H](O)[C@@H](C)[C@]2(O)[C@@H]2C=C(C)C(=O)[C@@]2(O)C1 [Compound 1, 13-O-Acetylphorbol-20-(9Z,12Z-octadecadienoate)] | 15.6 | 4.01 | 62.5 | did not activate PKC | 0% |  |  |  |  |  |  |  |  |  |  |  | 
C/C=C(\C)C(=O)O[C@@]12[C@H](O)[C@@H](C)[C@@]3(O)[C@@H](C=C(COC(=O)CCCCCCC/C=C\C/C=C\CCCCC)C[C@]4(O)C(=O)C(C)=C[C@@H]34)[C@@H]1C2(C)C [Compound 2, 13-O-Tigloylphorobol-20-(9Z,12Z-octadecadienoate)] | 7.81 | 8.00 | 62.5 |  | 14% | 7.8 | 32% |  |  |  |  |  |  |  |  |  | 
C/C=C(\C)C(=O)O[C@@]12[C@H](OC(C)=O)[C@@H](C)[C@@]3(O)[C@@H](C=C(CO)C[C@]4(O)C(=O)C(C)=C[C@@H]34)[C@@H]1C2(C)C [Compound 3, 12-O-Acetylphorbol-13-tigliate] | 125 | 4.00 | 500 |  | 16% |  | 30% | weak inhibitory effects against CPE | weak activation of PKC |  |  |  |  |  |  |  | 
CCCCCCCCCC(=O)O[C@@H]1[C@@H](C)[C@@]2(O)[C@@H](C=C(CO)C[C@]3(O)C(=O)C(C)=C[C@@H]23)[C@@H]2C(C)(C)[C@]12OC(=O)C(C)CC (stereo partly shown) [Compound 4, 12-O-Decanoylphorbol-13-(2-methylbutyrate)] | 7.81 | 4.01 | 31.3 |  | 0% | 7.8 | 0% |  | did not show any activation of PKC | no activation |  |  |  |  |  |  | 
C/C=C(\C)C(=O)O[C@@H]1[C@@H](C)[C@@]2(O)[C@@H](C=C(CO)C[C@]3(O)C(=O)C(C)=C[C@@H]23)[C@@H]2C(C)(C)[C@]12OC(=O)C(C)CC (stereo partly shown) [Compound 5, 12-O-Tigioylphorbol-13-(2-methylbutyrate)] | 31.3 | 2.00 | 62.5 |  | 10% |  | 40% | weak inhibitory effects against CPE | weak activation of PKC |  |  |  |  |  |  |  | 
CCCCCCCCCC(=O)O[C@@]12[C@H](OC(C)=O)[C@@H](C)[C@@]3(O)[C@@H](C=C(CO)C[C@]4(O)C(=O)C(C)=C[C@@H]34)[C@@H]1C2(C)C [Compound 6, 12-O-Acetylphorbol-13-decanoate] | 0.0076 | 8220 | 62.5 |  | 0% |  | 17% |  |  |  | 0.0076 | No activation of PKC was observed | no activation; also recorded: did not activate PKC |  |  |  | 
CCCCCCCCCCCC(=O)O[C@@]12[C@H](OC(=O)C(C)CC)[C@@H](C)[C@@]3(O)[C@@H](C=C(CO)C[C@]4(O)C(=O)C(C)=C[C@@H]34)[C@@H]1C2(C)C (stereo partly shown) [Compound 7, 12-O-(2-Methylbutyroyl)phorbol-13-dodecanoate] | 15.6 | 4.01 | 62.5 |  | 16% |  | 30% |  |  |  |  |  |  |  |  |  | 
CCCCCCCCCCCCCC(=O)O[C@@H]1[C@@H](C)[C@@]2(O)[C@@H](C=C(CO)C[C@]3(O)C(=O)C(C)=C[C@@H]23)[C@@H]2C(C)(C)[C@]12OC(C)=O [Compound 8, reference compound] | 0.00048 | 65200 | 31.3 |  | 96% and ~100% |  | 98% and ~100% | equipotent |  |  | 0.00048 |  |  | 100 | 8400 |  | 
CC1=C[C@H]2[C@@]3(O)[C@H](C)[C@@H](O)[C@]4(O)[C@H]([C@@H]3C=C(CO)C[C@]2(O)C1=O)C4(C)C [Compound 9, Phorbol] |  |  | 1000 |  | 8% |  | 39% | did not show CPE inhibitory effect; also recorded: showed no effect | weak activators of PKC |  |  |  |  |  |  | did not show anti-HIV-1 activity | 
CC(=O)O[C@@]12[C@H](O)[C@@H](C)[C@@]3(O)[C@@H](C=C(CO)C[C@]4(O)C(=O)C(C)=C[C@@H]34)[C@@H]1C2(C)C [Compound 10, 13-O-Acetylphorbol] | 125 | > 8.00 | > 1000 | did not activate PKC | 0% |  | 14% |  |  |  |  |  |  |  |  |  | 
CC(=O)OCC1=C[C@H]2[C@@H]3C(C)(C)[C@]3(OC(C)=O)[C@H](OC(C)=O)[C@@H](C)[C@]2(O)[C@@H]2C=C(C)C(=O)[C@@]2(O)C1 [Compound 11, Phorbol-12,13,20-triacetate] | 62.5 | 2.00 | 125 | did not activate PKC | 0% |  | 15% |  |  |  |  |  |  |  |  |  | 
CC1=C[C@H]2[C@@]3(O)[C@H](C)[C@@H](OC(=O)c4ccccc4)[C@]4(OC(=O)c5ccccc5)[C@H]([C@@H]3C=C(COC(=O)c3ccccc3)C[C@]2(O)C1=O)C4(C)C [Compound 12, Phorbol-12,13,20-tribenzoate] |  |  | 31.3 |  |  |  | 100% | showed no effect | enhanced the activation of PKC |  |  |  |  |  |  | did not show anti-HIV-1 activity | 
CCCCC/C=C\C/C=C\CCCCCCCC(=O)OCC1=C[C@H]2[C@@H]3C(C)(C)[C@]3(OC(C)=O)[C@H](OC(C)=O)[C@@H](C)[C@]2(O)[C@@H]2C=C(C)C(=O)[C@@]2(O)C1 [Compound 13, Phorbol-12,13-diacetate-20-linoleate] | 7.81 | 8.00 | 62.5 |  | 0% | 7.8 | 44% | Enhancement of the anti-HIV activity | without an increase in the activity of PKC |  |  |  |  |  |  |  | 
CCCCCCCCCCCCCC(=O)O[C@@H]1[C@@H](C)[C@@]2(O)[C@@H](C=C(COC(C)=O)C[C@]3(O)C(=O)C(C)=C[C@@H]23)[C@@H]2C(C)(C)[C@]12OC(C)=O [Compound 14, 12-O-Tetradecanoylphorbol-13,20-diacetate] | 15.6 | 4.01 | 62.5 |  | 0% |  | 30% | dramatically decreased | dramatically decreased |  |  |  |  |  |  |  | 
CC(=O)OCC1=C[C@H]2[C@@H]3C(C)(C)[C@]3(OC(C)=O)[C@H](OC(C)=O)[C@@H](C)[C@]2(O)[C@@H]2C=C(C)C(=O)[C@]2(OC(C)=O)C1 [Compound 23, 4α-Phorbol-4,12,13,20-tetraacetate] |  |  |  | did not activate PKC | 0% |  |  | showed no effect |  |  |  |  |  |  |  |  | enhanced activation of PKC
